Tests used:
L1210 cells = experiment: Cytotoxicity, murine L1210 leukemic cells; assay type: cell-based; details: Mus musculus, mean
CEM cells = experiment: Cytotoxicity, CEM human T-lymphocytes; details: for IC50: Homo sapiens, CCRF-CEM, read-out: CEM cells IC50; for TIL1210 (CEM cells): IC50 T-lymphocytes (CEM)/IC50 L1210; for TIP388 (CEM cells): IC50 T-lymphocytes (CEM)/IC50 P388; for TIht (CEM cells): IC50 T-lymphocytes (CEM)/IC50 human tumors
human tumors = experiment: Cytotoxicity, human tumor cell line panel (approximately 55 lines); details: for IC50: read-out: human tumors IC50, mean graph midpoint, approximately 55 cell lines, hydrobromide salts used for 4a, 11a-e
Molt 4/C8 cells = experiment: Cytotoxicity, Molt 4/C8 human T-lymphocytes; details: for TIL1210 (Molt 4/C8 cells): IC50 T-lymphocytes (Molt 4/C8)/IC50 L1210; for TIP388 (Molt 4/C8 cells): IC50 T-lymphocytes (Molt 4/C8)/IC50 P388; for TIht (Molt 4/C8 cells): IC50 T-lymphocytes (Molt 4/C8)/IC50 human tumors; for IC50: read-out: Molt 4/C8 cells IC50
P388 cells = experiment: Cytotoxicity, murine P388 leukemic cells (P388 D1); details: for IC50: read-out: P388 cells IC50

SMILES	IC50 (L1210 cells) [µM]	IC50 (CEM cells) [µM]	TIL1210 (CEM cells) (CEM cells)	TIP388 (CEM cells) (CEM cells)	TIht (CEM cells) (CEM cells)	Selective toxicity towards leukemia (human tumors; human tumor screen)	IC50 (human tumors) [µM]	TIL1210 (Molt 4/C8 cells) (Molt 4/C8 cells)	TIP388 (Molt 4/C8 cells) (Molt 4/C8 cells)	TIht (Molt 4/C8 cells) (Molt 4/C8 cells)	IC50 (Molt 4/C8 cells) [µM]	IC50 (P388 cells) [µM]	potency relative to melphalan, P388 (P388 cells)	selective/preferential cytotoxicity towards colon cancer cells (human tumors; human tumor screen)	TI (murine leukemia cells vs T-lymphocytes; printed TIht) compared with compound d (Molt 4/C8 cells)	TIht compared with compound 9d (Molt 4/C8 cells)	cytotoxicity compared with compound 9d (P388 cells; Table 3 screens)
CCN(CC)CCC(=O)/C=C/c1ccccc1 [Compound 1a]	25.7	33.9	1.32	19.92	3.47	this property was also noted	9.77	1.66	25.04	4.36	42.6	1.7					
CCN(CC)CCC(=O)/C=C/c1ccc(Cl)c(Cl)c1 [Compound 1c]	61.2	55.8	0.91	143.2	14.70		3.8	0.74	116.5	11.96	45.4	0.39	more than half the potency of melphalan				
CCN(CC)CCC(=O)c1ccccc1 [Compound 4a]	20.3	38.5	1.90	14.81	1.53		25.1	0.86	6.68	0.69	17.4	2.6					
CCN(CC)CCC(=O)c1ccc(C)cc1 [Compound 4d]	21.5	64.1	2.98	29.15	2.44		26.3	2.96	28.97	2.42	63.7	2.2					
O=C(/C=C/c1ccccc1)CCN1CCN(CCC(=O)/C=C/c2ccccc2)CC1 [Compound 8a]	5.78	5.55	0.96	3.95	0.46		12	0.95	8.89	0.46	5.51 ± 2.73	0.62					
CCN1CCC(O)(/C=C/c2ccccc2)C(C(=O)/C=C/c2ccccc2)C1 (stereo not shown) [Compound 9a]	5.3	16.5	3.12	11.81	6.02		2.75	5.64	21.36	10.88	29.9	1.4					
CCN1CCC(O)(/C=C/c2ccc(OC)cc2)C(C(=O)/C=C/c2ccc(OC)cc2)C1 (stereo not shown) [Compound 9e]	25.6	11.7	0.46	2.35	1.41	this property was also noted	8.31	0.81	4.14	2.49	20.7	5					
CC[N+]1(C)CCC(O)(/C=C/c2ccc(C)cc2)C(C(=O)/C=C/c2ccc(C)cc2)C1 (stereo not shown) [Compound 10d]	13.8	3.92	0.28	6.32				0.45	9.98		6.19 ± 0.7	0.62					
CCN1CCC(O)(c2ccccc2)C(C(=O)c2ccccc2)C1 (stereo not shown) [Compound 11a]	20.1	45.7	2.28	42.70	1.51		30.2	1.80	33.78	1.20	36.1	1.07					
CCN1CCC(O)(c2ccc(Cl)cc2)C(C(=O)c2ccc(Cl)cc2)C1 (stereo not shown) [Compound 11b]	15.7	102	6.52	19.89	1.23		83.2	3.68	11.21	0.69	57.6	5.14					
CCN1CCC(O)(c2ccc(C)cc2)C(C(=O)c2ccc(C)cc2)C1 (stereo not shown) [Compound 11d]	38.2	38.7	1.01	4.50	1.54		25.1	0.89	3.97	1.36	34.2	8.6					
CCN1CCC(O)(c2ccc(OC)cc2)C(C(=O)c2ccc(OC)cc2)C1 (stereo not shown) [Compound 11e]	13.5	39.9	2.96	9.57	2.05		19.5	2.94	9.51	2.04	39.7	4.17					
CCN1CCC(O)(c2ccc(O)cc2)C(C(=O)c2ccc(O)cc2)C1 (stereo not shown) [Compound 11f]	9.75	42.6	4.37	30.46	2.04		20.9	4.32	30.09	2.02	42.1	1.4					
CC[N+]1(C)CCC(O)(c2ccc(Cl)c(Cl)c2)C(C(=O)c2ccc(Cl)c(Cl)c2)C1 (stereo not shown) [Compound 12c]	33.6	25.8	0.77	11.20	2.70		9.54	0.84	12.23	2.95	28.1	2.3					
CCN1CCC(O)(/C=C/c2cccc(C)c2)C(C(=O)/C=C/c2cccc(C)c2)C1 (stereo not shown) [Compound 13a]	12.6	9.23	0.73	4.89	3.75		2.46	1.14	7.57	5.81	14.3 ± 9.1	1.89		neither 13a,b displayed selective toxicity for colon cancers	lower	greater than compound 9d	comparable cytotoxicity to compound 9d
